According to US12486229B2, “Indole derivative and application thereof” (SHANGHAI MEDICILON INC., priority 2020, dated 2025):

Assays:
S1P1 = target: T1, S1P1 (Homo sapiens, UniProt P21453); experiment: S1P1 overexpression cell activity by β-arrestin assay (U2OS-EDG1); type: cell-based; conditions: U2OS-EDG1 cells
T1 construct: host or cells: U2OS (human osteosarcoma) cell line, U2OS-EDG1
Method: The following experiments were conducted to detect the activity of the compound on S1P1 overexpression cells by β-arrestin assay. [table] [table] 3. Experimental Steps Day 1: Cell Seeding Plate and Compound Treatment • (1) Firstly, the compound was diluted by a 4-fold gradient into 10 concentration points from the concentration of 10 μM in the culture plate by using NL fluid transfer system, with 2 replicates at each concentration point. • (2) Cells were resuspended by using FreeStyle™ expression medium, and the cell density was adjusted to 7,500 cells per 40 μL suspension. The samples with test concentration were added into the well of the cell culture plate, and 40 μL cell suspension was added into the corresponding well. • (3) The above cell plates were incubated overnight in a CO2 incubator with 5% (volume fraction) at 37° C. Day 2: Detection and Data Analysis • (1) The buffer solution was prepared according to the preparation method in the instructions of LiveBLAser™-fluorescence resonance energy transfer B/G loading kit. • (2) 8 μL detection reagent was added to each well, which were shaken and mixed evenly for 1 minute, centrifugated at 1,000 rpm for 10 seconds, and incubated at 23° C. in dark for 2 hours. • 3) Detection was performed by multimode reader. • 4) The PrismDemo software was used to analyze the data and fit the curve. 4. Experimental Results

[1] = tested on: DSS induced ulcerative colitis in mice; experiment: DSS induced ulcerative colitis in mice; type: in vivo; set-up: key to Total stool scores: sum of shape (1-3) and bleeding (1-3) levels; normal = 1 each; Colon length: unit not given here; conditions: for Colon weight / Effect on blood stool and loose stool compared with model group / Colon length: day 9; for Colon weight compared with model group: P<0.05
Method: Molecular weight of DSS dextran sodium sulfate: 36,000 to 50,000, From MP Biomedical Company.
Preparation of molding agent: preparation of 3.5% DSS: 49 g DSS plus 1,400 mL high-temperature sterilized water.
Source of SPF male C57BL/6 mice: Beijing Weitong Lihua Experimental Animal Technology Co., Ltd. • Animal age at the beginning of the experiment: 6 to 8 weeks; • Animal weight at the beginning of the experiment: 22 to 25 g; • Adaptation time: 3 to 5 days;
The mice were divided into groups according to their weight, 10 mice in each group. The mice were administrated once a day by gavage (or blank) according to the following Table 4.
Animals were given 3.5% DSS solution for free drinking water modeling (the day of modeling was recorded as day 1), and the modeling agent was replaced once every two days for 7 consecutive days, and then (day 8) 3.5% DSS was replaced with ordinary drinking water for another 1 day.
• Preparation of solvent 1: 0.66 mL DMSO, 1.32 mL Solutol and 11.22 mL Saline were mixed to prepare 13.2 mL of solvent 1; • Preparation of solvent 2: 0.3 mL DMSO, 0.6 mL Solutol and 5.1 mL Saline were mixed to prepare 6 mL of solvent 2; • Preparation of solution of compound of Example 3: 39.6 mg of compound of Example 3 was dissolved in 13.2 mL of solvent 1 to obtain the solution of compound 1 of Example 3, the solution 1 of compound of Example 3 was diluted with solvent 1 to prepare the solution of compound of Example 3 with concentrations of 2 mg/mL, 1 mg/mL, and 0.6 mg/mL; • Etrasimod solution: 6 mg of Etrasimod was dissolve in 6 mL of solvent 2 to obtain Etrasimod solution; • Ozanimod solution: 12 mg of […] was dissolved in 6 mL solvent 2 to obtain Ozanimod solution; • Note: Prepare once every two days, and store in refrigerator at 4° C.
Wherein, the purity of compound of Example 3 was 99.74%, Ozanimod and Etrasimod were prepared by the method described in Example 8, and the purities were 99.78% and 98.47% respectively.
The mouse stool was observed on its shape, bleeding condition every two days, and scored. Scoring criteria for stool condition: shape: normal (level 1), soft stool (level 2), and loose stool (level 3); traits: normal (level 1), faint redness (level 2), and bloody stool visible to the unaided eye (level 3).
After the last administration (8 consecutive days), the animals were dissected on the next day (day 9), the colon was separated, the whole colon was photographed, and the colon length was measured. Then the colon was cut longitudinally along the mesenteric side to remove the contents, which was weighed and observed on the integrity of the colonic mucosa. The colon was then fixed in 10% formalin.

[2] = 10 mg/kg oral gavage once a day for 8 days
[3] = Day 1, 10 mg/kg oral gavage once a day
[4] = Day 2, 10 mg/kg oral gavage once a day
[5] = Day 3, 10 mg/kg oral gavage once a day
[6] = Day 4, 10 mg/kg oral gavage once a day
[7] = Day 5, 10 mg/kg oral gavage once a day
[8] = Day 6, 10 mg/kg oral gavage once a day
[9] = Day 7, 10 mg/kg oral gavage once a day
[10] = Day 8, 10 mg/kg oral gavage once a day
[11] = Day 9, 10 mg/kg oral gavage once a day
[12] = 6 mg/kg oral gavage once a day for 8 days
[13] = 20 mg/kg oral gavage once a day for 8 days
[14] = 30 mg/kg oral gavage once a day for 8 days
[15] = Day 7, 6 mg/kg oral gavage once a day
[16] = Day 7, 20 mg/kg oral gavage once a day
[17] = Day 7, 30 mg/kg oral gavage once a day
[18] = Day 8, 6 mg/kg oral gavage once a day
[19] = Day 8, 20 mg/kg oral gavage once a day
[20] = Day 8, 30 mg/kg oral gavage once a day
[21] = Day 9, 6 mg/kg oral gavage once a day
[22] = Day 9, 20 mg/kg oral gavage once a day
[23] = Day 9, 30 mg/kg oral gavage once a day

T1 sequence (P21453 whole entry): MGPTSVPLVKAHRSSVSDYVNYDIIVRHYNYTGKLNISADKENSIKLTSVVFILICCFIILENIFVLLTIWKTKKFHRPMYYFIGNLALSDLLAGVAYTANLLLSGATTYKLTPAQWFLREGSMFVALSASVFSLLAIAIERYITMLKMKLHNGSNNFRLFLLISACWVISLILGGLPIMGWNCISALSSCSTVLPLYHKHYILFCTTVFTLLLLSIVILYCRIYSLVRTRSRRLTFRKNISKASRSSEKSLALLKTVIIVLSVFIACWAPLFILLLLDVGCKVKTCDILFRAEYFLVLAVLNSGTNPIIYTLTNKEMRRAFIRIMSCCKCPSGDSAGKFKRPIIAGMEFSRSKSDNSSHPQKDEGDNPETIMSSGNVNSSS

## O=C(O)C[C@H]1CCc2c1[nH]c1ccc(OCc3ccc(C4CCCC4)c(C(F)(F)F)c3)cc21 [Etrasimod, reference compound]
S1P1
  IC50: 4.71 nM
[1]; [2]
  Colon weight: 0.169 ± 0.01 g
[1]; 10 mg/kg
  Colon weight compared with model group: statistically significant difference compared with that of the model group
  Effect on blood stool and loose stool compared with model group: had not significant improvement
[1]; [3]
  Weight: 21.0 ± 0.26 g
[1]; [4]
  Weight: 21.6 ± 0.24 g
[1]; [5]
  Weight: 21.4 ± 0.25 g
[1]; [6]
  Weight: 21.7 ± 0.29 g
[1]; [7]
  Weight: 21.2 ± 0.27 g
[1]; [8]
  Weight: 20.5 ± 0.22 g
[1]; [9]
  Total stool scores: 6.0 ± 0
  Weight: 19.2 ± 0.26 g
[1]; [10]
  Total stool scores: 5.9 ± 0.11
  Weight: 18.0 ± 0.3 g
[1]; [11]
  Total stool scores: 5.6 ± 0
  Weight: 16.6 ± 0.26 g

## O=C(O)CCn1ccc2cc(OCc3ccc(C4CCCC4)c(C(F)(F)F)c3)cc(Cl)c21 [Compound of Example 3, 3-(7-chlorine-5-((4-cyclopentyl-3-(trifluoromethyl)benzyl)oxy)-1H-indole-1-yl)propionic acid]
S1P1
  IC50: 0.148 nM
[1]; [12]
  Colon length: 39.061 ± 1.17
  Colon weight: 0.164 ± 0.01 g
[1]; 6 mg/kg
  Colon weight compared with model group: statistically significant difference compared with that of the model group
  Effect on blood stool and loose stool compared with model group: significantly improving blood stool and loose stool
[1]; [2]
  Colon length: 39.638 ± 0.76
  Colon weight: 0.164 ± 0.01 g
[1]; 10 mg/kg
  Colon weight compared with model group: statistically significant difference compared with that of the model group
  Effect on blood stool and loose stool compared with model group: significantly improving blood stool and loose stool
[1]; 20 mg/kg
  Colon length compared with model group: longer than that of the model group
  Colon weight compared with model group: statistically significant difference compared with that of the model group
  Effect on blood stool and loose stool compared with model group: significantly improving blood stool and loose stool
[1]; [13]
  Colon length: 44.892 ± 1.83
  Colon weight: 0.163 ± 0.01 g
[1]; 30 mg/kg
  Colon length compared with model group: longer than that of the model group
  Effect on blood stool and loose stool compared with model group: significantly improving blood stool and loose stool
[1]; [14]
  Colon length: 41.311 ± 1.25
  Colon weight: 0.162 ± 0.01 g
[1]; Day 1, 6 mg/kg oral gavage once a day
  Weight: 21.3 ± 0.26 g
[1]; [3]
  Weight: 21.9 ± 0.2 g
[1]; Day 1, 20 mg/kg oral gavage once a day
  Weight: 21.2 ± 0.34 g
[1]; Day 1, 30 mg/kg oral gavage once a day
  Weight: 21.5 ± 0.17 g
[1]; Day 2, 6 mg/kg oral gavage once a day
  Weight: 21.5 ± 0.27 g
[1]; [4]
  Weight: 22.1 ± 0.2 g
[1]; Day 2, 20 mg/kg oral gavage once a day
  Weight: 21.7 ± 0.29 g
[1]; Day 2, 30 mg/kg oral gavage once a day
  Weight: 21.9 ± 0.17 g
[1]; Day 3, 6 mg/kg oral gavage once a day
  Weight: 21.1 ± 0.3 g
[1]; [5]
  Weight: 21.4 ± 0.32 g
[1]; Day 3, 20 mg/kg oral gavage once a day
  Weight: 21.5 ± 0.33 g
[1]; Day 3, 30 mg/kg oral gavage once a day
  Weight: 21.4 ± 0.34 g
[1]; Day 4, 6 mg/kg oral gavage once a day
  Weight: 20.9 ± 0.47 g
[1]; [6]
  Weight: 21.3 ± 0.46 g
[1]; Day 4, 20 mg/kg oral gavage once a day
  Weight: 21.8 ± 0.34 g
[1]; Day 4, 30 mg/kg oral gavage once a day
  Weight: 21.1 ± 0.4 g
[1]; Day 5, 6 mg/kg oral gavage once a day
  Weight: 21.1 ± 0.25 g
[1]; [7]
  Weight: 21.0 ± 0.6 g
[1]; Day 5, 20 mg/kg oral gavage once a day
  Weight: 21.5 ± 0.33 g
[1]; Day 5, 30 mg/kg oral gavage once a day
  Weight: 21.1 ± 0.39 g
[1]; Day 6, 6 mg/kg oral gavage once a day
  Weight: 20.5 ± 0.25 g
[1]; [8]
  Weight: 20.4 ± 0.45 g
[1]; Day 6, 20 mg/kg oral gavage once a day
  Weight: 20.3 ± 0.48 g
[1]; Day 6, 30 mg/kg oral gavage once a day
  Weight: 20.1 ± 0.58 g
[1]; [15]
  Total stool scores: 5.6 ± 0.17
  Weight: 19.2 ± 0.23 g
[1]; [9]
  Total stool scores: 5.7 ± 0.22
  Weight: 19 ± 0.46 g
[1]; [16]
  Total stool scores: 5.7 ± 0.21
  Weight: 19 ± 0.46 g
[1]; [17]
  Total stool scores: 5.4 ± 0.32
  Weight: 19.5 ± 0.52 g
[1]; [18]
  Total stool scores: 5.9 ± 0.11
  Weight: 18.1 ± 0.38 g
[1]; [10]
  Total stool scores: 5.7 ± 0.22
  Weight: 17.8 ± 0.4 g
[1]; [19]
  Total stool scores: 5.9 ± 0.11
  Weight: 17.4 ± 0.58 g
[1]; [20]
  Total stool scores: 5.6 ± 0.23
  Weight: 18.4 ± 0.51 g
[1]; [21]
  Total stool scores: 4.6 ± 0
  Weight: 16.3 ± 0.33 g
[1]; [11]
  Total stool scores: 4.8 ± 0.26
  Weight: 16.2 ± 0.3 g
[1]; [22]
  Total stool scores: 4.8 ± 0.31
  Weight: 16.5 ± 0.4 g
[1]; [23]
  Total stool scores: 4.6 ± 0.39
  Weight: 17.2 ± 0.48 g
[1]; oral gavage for 8 consecutive days, 6-30 mg/kg
  Effect on colon atrophy: certain inhibitory effect on colon atrophy
